ChEMBL document CHEMBL1125999 (Bioorg Med Chem Lett, 1991)

Key:
D(2) dopamine receptor = D(2) dopamine receptor (Bos taurus, UniProt P20288); assay: In vitro binding affinity towards Dopamine D2 receptor using [3H]spiperone as radioligand
D(1A) dopamine receptor = D(1A) dopamine receptor (Bos taurus, UniProt Q95136); assay: In vitro binding affinity towards Dopamine D1 receptor using [3H]-SCH- 23390 as radioligand
[1] = Dissociation constant was evaluated; type: physicochemical

D(2) dopamine receptor, sequence (P20288 whole entry): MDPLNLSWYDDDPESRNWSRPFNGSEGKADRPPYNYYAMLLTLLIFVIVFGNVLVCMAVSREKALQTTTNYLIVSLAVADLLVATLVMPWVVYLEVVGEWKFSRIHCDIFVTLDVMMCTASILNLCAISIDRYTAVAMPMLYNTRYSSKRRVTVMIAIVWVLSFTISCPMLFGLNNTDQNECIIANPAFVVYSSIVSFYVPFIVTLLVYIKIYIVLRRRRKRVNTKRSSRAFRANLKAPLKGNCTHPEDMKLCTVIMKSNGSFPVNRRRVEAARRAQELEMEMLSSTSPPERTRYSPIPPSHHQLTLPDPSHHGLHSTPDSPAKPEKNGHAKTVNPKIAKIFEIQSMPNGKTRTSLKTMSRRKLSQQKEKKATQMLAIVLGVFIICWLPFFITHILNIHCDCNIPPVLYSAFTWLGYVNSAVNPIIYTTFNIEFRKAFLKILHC
D(1A) dopamine receptor, sequence (Q95136 whole entry): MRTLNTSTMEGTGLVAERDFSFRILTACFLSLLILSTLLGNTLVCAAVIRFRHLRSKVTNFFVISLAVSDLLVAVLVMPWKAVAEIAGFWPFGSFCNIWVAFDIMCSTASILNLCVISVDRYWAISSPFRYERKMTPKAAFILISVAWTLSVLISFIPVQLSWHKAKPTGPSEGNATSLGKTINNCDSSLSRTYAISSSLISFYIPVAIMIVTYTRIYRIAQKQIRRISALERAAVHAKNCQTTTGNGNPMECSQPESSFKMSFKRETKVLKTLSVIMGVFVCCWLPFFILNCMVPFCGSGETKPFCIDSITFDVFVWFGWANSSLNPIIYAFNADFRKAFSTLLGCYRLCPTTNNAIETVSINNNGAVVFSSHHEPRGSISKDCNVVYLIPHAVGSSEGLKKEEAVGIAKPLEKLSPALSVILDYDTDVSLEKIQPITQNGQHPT

CCCN(CCC)CCc1ccc2[nH]c(O)nc2c1
IC50 (D(2) dopamine receptor): > 100 µM
IC50 (D(1A) dopamine receptor): > 100 µM

CCCN(CCC)CCc1ccc2[nH]c(=O)c(=O)[nH]c2c1
pKa [1]: 9.5
IC50 (D(2) dopamine receptor): 3 µM
IC50 (D(1A) dopamine receptor): > 100 µM

CCCN(CCC)CCc1ccc(NC(=O)C(F)(F)F)c(NC(=O)C(F)(F)F)c1
IC50 (D(2) dopamine receptor): > 100 µM
IC50 (D(1A) dopamine receptor): > 100 µM

NCCc1ccc(O)c(O)c1 [DOPAMINE]
IC50 (D(1A) dopamine receptor): 0.2 µM

CCCN(CCC)CCc1ccc2nn[nH]c2c1
IC50 (D(2) dopamine receptor): 50 µM
IC50 (D(1A) dopamine receptor): > 100 µM

CCCN(CCC)CCc1ccc(NC(C)=O)c(NC(C)=O)c1
IC50 (D(2) dopamine receptor): > 100 µM
IC50 (D(1A) dopamine receptor): > 100 µM

CCCN(CCC)CCc1ccc2[nH]c(S)nc2c1
pKa [1]: 9.8
IC50 (D(2) dopamine receptor): 1 µM
IC50 (D(1A) dopamine receptor): > 100 µM
